Data set [1] has as its system HIV-1 IIIB. Nature of the data set: microbe, parasite or virus in culture. The settings on record: read-out: IC50 HIV-1 Infection. As for the experimental part: The crude extract of Cassia abbreviata and all isolated compounds were assessed for their anti-HIV activity in MT4 cells infected by the reference strain HIV-1 IIIB (Figure 3). […] Enfuvirtide and Plerixafor are entry inhibitors for positive controls.
(§1) MT4 cells were obtained through the NIH AIDS Reagent Program and cultured in RPMI 1640 (Lonza, Wijchen, the Netherlands) supplemented with 10% heat-inactivated fetal bovine serum (Lonza, the Netherlands) and 2mM L-glutamine (Invitrogen, Gosselies, Belgium). MT-4 cells were incubated with the crude extract of Cassia abbreviatta or the tested compounds alone to assess cytotoxicity, or HIV-1 IIIB alone or a mixture of the tested extract and compounds and HIV-1 IIIB viruses to assess protection against HIV-1 infection. After five days, protection from viral infection and the cytotoxicity were evaluated in parallel using (3-(4,5-dimethylthiazol-2-yl)-2,5-diphenyltetrazolium bromide (MTT, Sigma, Liège, Belgium) by measuring OD540 and OD690 using a POLARstar Omega Plate Reader (BMG Labtech, Ortenberg, Germany). Data were normalized to cells without treatment. Values of OD540−OD690 were calculated to determine IC50 values in Prism. The entry inhibitors, enfuvirtide, and AMD3100 (Sigma Aldrich, Liège, Belgium), were used as positive controls.

The nature of data set [2]: Cytotoxicity in MT4 cells (MTT). The class given is cell-based. The settings on record: for IC50 at 5 days: human. The method, then:
as §1, with “After five days, protection from viral infection and the cytotoxicity were evaluated in parallel using (3-(4,5-dimethylthiazol-2-yl)-2,5-diphenyltetrazolium bromide (MTT, Sigma, Liège, Belgium) by measuring OD540 and OD690 using a POLARstar Omega Plate Reader (BMG Labtech, Ortenberg, Germany).” left out

The mark [3] stands for this setting: Human immunodeficiency virus 1, IIIB, MT4, 120 h.
Setting [4] is: MT4 cells incubated with compound alone, five days, MTT, read-out: IC50 Cytotoxicity.

Like-named read-outs stand apart in the source and are kept apart here.

Usually IC50 stands for the concentration that inhibits the measured activity by half. For `CC12OC(=O)CC1C1Oc3c(c(O)cc(O)c3C3c4ccc(O)cc4OC(c4ccc(O)cc4)C3O)CC1O2` (stereo not drawn) [Cassiabrevone (1), guibourtinidol (4α→8) planchol A], the IC50 in data set [1] (setting [3]) is 11.9 ± 2.14 µM. Besides, in data set [2], the IC50 at 5 days was over 333 µM.

`Oc1ccc([C@H]2Oc3cc(O)ccc3[C@@H](c3c(O)cc(O)c4c3O[C@H](c3ccc(O)cc3)[C@H](O)C4)[C@@H]2O)cc1` [Guibourtinidol-(4α→8)-epiafzelechin (4), guibourtinidol-(4α→8)-epiafzelechin]: in data set [1] (setting [3]), the IC50 came to 15.4 ± 9.09 µM. The compound further came in with an IC50 at 5 days in data set [2] of over 333 µM.

As to `CC1(C)CC[C@]2(C(=O)O)CC[C@]3(C)C(=CC[C@@H]4[C@@]5(C)CC[C@H](O)C(C)(C)[C@@H]5CC[C@]43C)[C@@H]2C1` [Oleanolic acid (17), oleanolic acid], the IC50 in data set [1] (setting [3]) is 7.95 ± 2.57 µM. Also, the IC50 at 5 days in data set [2] (setting [4]) was over 333 µM.

For `CCCCCCCCCCCCCCCC(=O)O` [Palmitic acid (28), Palmitic acid], the IC50 in data set [1] (setting [3]) is 16 ± 3.04 µM. The compound further registered an IC50 at 5 days in data set [2] of over 333 µM.

Take `Oc1cc(O)cc(/C=C/c2ccc(O)c(O)c2)c1` [Piceatannol (22), piceatannol]: the half-maximal inhibitory concentration (IC50) in data set [1] (setting [3]) came out at 3.58 ± 0.27 µM. For the same compound, in data set [2], the IC50 at 5 days was over 333 µM.

Turning to `c1cc(CN2CCCNCCNCCCNCC2)ccc1CN1CCCNCCNCCCNCC1` [Plerixafor (AMD3100), Plerixafor, reference compound], the IC50 in data set [1] (setting [3]) was determined as 0.075 ± 0.009 µM. In addition, in data set [2], the IC50 at 5 days was over 1 µM.

Take `O=C1c2c(O)cc(O)cc2OC(c2ccc(O)c(O)c2)C1O` (stereo not shown) [Taxifolin (8), taxifolin]: the IC50 in data set [1] (setting [3]) worked out at 49 ± 5.02 µM. In addition, in data set [2] (setting [4]), the IC50 at 5 days was over 333 µM.

Consider Enfuvirtide, for which the IC50 in data set [1] (MT4 cells infected by reference strain HIV-1 IIIB, five days, MTT, mean ± SD, three experiments) came out at 0.0096 ± 0.001 µM.

For the compound enfuvirtide, in data set [2] (MT4 cells incubated with compound alone, five days, MTT), the IC50 was over 1 µM.

(Values after publication PMC8122790, “Chemical Constituents of Cassia abbreviata and Their Anti-HIV-1 Activity” (Molecules, 2021).)
